By IC50 is commonly meant the midpoint of a concentration-inhibition curve. In general, LD50 refers to the dose expected to kill half of the subjects tested. A high value points to lower toxicity.

From patent publication US5217952A, “Peptides WS-9326a and WS-9326b, derivatives thereof and uses thereof” (Fujisawa Pharmaceutical Co., Ltd., priority 1988, dated 1993) come the findings set out here.

Series [1] deals with contractile responses of guinea pig trachea induced by substance P (SP). Put plainly: Contractile response of guinea pig trachea induced by substance P. As to conditions: for IC50: read-out: IC50 (M), SP 10^-8 M induced contraction.
Method: (§3) Tracheal spiral strips were prepared from adult, male, albino Hartley strain guinea pigs (600 g) according to standard technique and placed in jacketed 30 ml glass tissue bath. […] Tracheal strips (2 mm width and 50 mm length) were suspended under a resting tension of 500 mg in 30 ml organ baths containing warm (37° C.) oxygenated (95% O2 : 5% CO2) Tyrode solution of following composition: NaCl 137 mM (8 g/liter), KCl 2.7 mM (0.2 g/liter), CaCl2 ·2H2 O 1.8 mM (0.264 g/liter), MgCl2 ·6H2 O 1.02mM (0.208 g/liter), NaHCO3 11.9 mM (1 g/liter), NaH2 PO4 ·2H2 O 0.42 mM (0.066 g/liter) and glucose 5.5 mM (1 g/liter).
Series [2] concerns neurokinin A induced bronchoconstriction. Put plainly: Neurokinin A induced bronchoconstriction, drug iv. It counts as in vivo, guinea-pigs. The conditions noted are these: 10 mg/kg, n:5. The procedure: (§1) Male Hartley strain guinea-pigs weighing 300-500 g were immobilized with sodium pentobarbital (10 mg/animal administered intraperitoneally). The jugular vein was cannulated for administration of neurokinin A (or capsaicin) and drug. A catheter was also intubated into trachea for artifical ventilation. The animal was respirated by means of a miniature respiration pump (HARVARD B-34, 5 ml/stroke, 60 strokes/minute). Resistance to lung inflation was measured by a modification of Konzett-Rossler overflow technique.
(§2) Agonist was administered iv and the antagonist drug (prepared in 0.1% methyl cellulose-saline) was administered iv as shown below. [drawing 7]

Series [3] has the same test system. Put plainly: Neurokinin A induced bronchoconstriction, intratrachea administration. It counts as in vivo, guinea-pigs. The conditions noted are these: for Inhibition (%) of neurokinin A response / ED50 mg/kg, inhibition of neurokinin A response: NKA 1 n mol/kg iv; for Effect of intratrachea administration on neurokinin A induced bronchoconstriction (in words): dissolved in DMSO; for Effect of intratrachea administration on neurokinin A induced bronchoconstriction (in words) / ED50 mg/kg, inhibition of neurokinin A response: intratrachea. As for the experimental part:
as §1
The method was almost same as mentioned above.

In series [4] the test system is acetic acid induced writhing. Nature of the series: Analgesic action, acetic acid induced writhing. It is filed as in vivo. As to conditions: male ddY mice; intraperitoneally 15 minutes before acetic acid. As for the experimental part:
Ten male ddY strain mice were used par group. To estimate the frequency of writhing syndrome, the animals were observed from 3 to 13 minutes after an intraperitoneal injection of 0.2 ml/10 g of 0.6% acetic acid. […] The frequency of writhing syndrome in the treated animals was compared with that in the non-treated control animals.
Background: In writhing tests, fewer writhes than in controls are read as antinociception.

The subject of series [5] is contractile responses of guinea pig trachea induced by neurokinin A (NKA). Nature of the series: Contractile response of guinea pig trachea induced by neurokinin A.
Method: as §3
In series [6] the test system is capsaicin induced bronchoconstriction. Put plainly: Capsaicin induced bronchoconstriction, drug iv. It is filed as in vivo, guinea-pigs. The conditions noted are these: 10 mg/kg, n:4. As for the experimental part:
as §1, §2

The nature of series [7]: Acute toxicity, single intraperitoneal injection. The conditions noted are these: mouse, in vivo, ip, ddY mice, male. As for the experimental part: Acute toxicity of WS-9326A was determined in ddY mice (5 weeks old, male) by a single intraperitoneal injection of graded dose of test compound into 5 mice.
Series [8] can be described thus: Solubility (physical and chemical properties). It counts as physicochemical.
The target of series [9] is T1, specific [^3 H] substance P binding to guinea pig lung membranes (Cavia porcellus, UniProt P30547).
T1 construct: The trachea and lungs were removed, and stored at -80° C. until use; from tissue; host or cells: guinea pig trachea and lung crude membrane fraction
Nature of the series: ^3H-Substance P binding to guinea pig lung membranes (radioligand binding assay). As to conditions: 3H-Substance P 1 nM, 4° C., 30 minutes, read-out: IC50 (M) lung, displacement of specific [3H] substance P binding.
Method: Male albino Hartley strain guinea pigs (600 g) were sacrificed by decapitation. The trachea and lungs were removed, and stored at -80° C. until use. […] The tissue was homogenized with a Ultra-Disperser (YAMATO, MODEL LK-21) at a setting of maximum range for 10-s at 10-s intervals with cooling between homogenizations (total homogenization's time: 60 seconds). The homogenate was centrifuged (900×g for 10 min.) to remove tissue supernatant centrifuged at 14000×g for 20 min. to yield pellets which were referred to as crude membrane fractions. The pellets were resuspended in Medium I, homogenized with a teflon homogenizer and centrifuged at 14000×g for 20 min. The pellets were stored at -20° C.
^3 H-Substance P (1 nM, New England Nuclear) was incubated with 50 μl of the membrane preparation in medium I at 4° C. for 30 minutes in a final volume of 250 μl. At the end of the incubation period, its contents were quickly filtered over a whatmann GF/B glass fibre filter (pretreated with 0.1% polyethyleneimine for 3 hours prior to use) using cell harvester (BRANDEL M-24S). The filters were then washed ten times with a total of 3 ml of the washing buffer (50 mM Tris-HCl pH 7.5) at 0° C. The radioactivity was counted in 3 ml of Aquazol-2 in Packard sintillation counter (PACKARD TRI-CARB 4530).

Setting [10] is: intratrachea 0.03 mg/kg in DMSO, 20 minutes.
[11] abbreviates: intratrachea 0.03 mg/kg in DMSO, 35 minutes.
[12] abbreviates: intratrachea 0.03 mg/kg in DMSO, 50 minutes.
[13] abbreviates: intratrachea 0.03 mg/kg in DMSO, 65 minutes.
Where [14] appears, read: intratrachea 0.3 mg/kg in DMSO, 20 minutes.
Where [15] appears, read: intratrachea 0.3 mg/kg in DMSO, 35 minutes.
Where [16] appears, read: intratrachea 0.3 mg/kg in DMSO, 50 minutes.
Where [17] appears, read: intratrachea 0.3 mg/kg in DMSO, 65 minutes.

Numbered stars: 1 amine (or outer) side, 2 acyl side, 3 side chain; on linkers, the order of the positions; unused ones are H or OH. Bridge positions count the residues as written; N and C are the ends. Square brackets hold non-standard residues; d marks the D form. Peptide text beside a SMILES is read from it. * marks the point of attachment. Cinnamoyl(2-(1Z-pentenyl)) = CCC/C=C\c1ccccc1/C=C/C(=O)*; X1 = CN(/C(=C/c1ccc(O)cc1)C(=O)[*:2])[*:1]; NMeY = CN[C@@H](Cc1ccc(O)cc1)C(=O)O; aThr = C[C@H](O)[C@H](N)C(=O)O; X2 = CCCCCc1ccccc1CCC(=O)*

T1 sequence (P30547 whole entry): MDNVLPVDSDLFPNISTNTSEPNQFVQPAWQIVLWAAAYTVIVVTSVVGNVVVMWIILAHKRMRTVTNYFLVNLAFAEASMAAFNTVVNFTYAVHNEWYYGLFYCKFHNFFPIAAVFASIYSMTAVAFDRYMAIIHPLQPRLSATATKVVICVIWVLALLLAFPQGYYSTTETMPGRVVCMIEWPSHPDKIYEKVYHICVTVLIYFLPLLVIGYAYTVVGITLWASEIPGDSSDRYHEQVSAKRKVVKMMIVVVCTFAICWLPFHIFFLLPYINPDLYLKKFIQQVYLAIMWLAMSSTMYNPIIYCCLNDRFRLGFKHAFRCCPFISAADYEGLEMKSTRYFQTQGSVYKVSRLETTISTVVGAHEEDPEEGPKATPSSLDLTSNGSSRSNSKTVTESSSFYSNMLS

For `CCCCCc1ccccc1CCC(=O)N[C@@H]1C(=O)N(C)/C(=C/c2ccc(O)cc2)C(=O)N[C@@H](CC(C)C)C(=O)N[C@H](Cc2ccccc2)C(=O)N[C@@H]([C@H](C)O)C(=O)N[C@@H](CC(N)=O)C(=O)N[C@@H](CO)C(=O)O[C@@H]1C` [Tetrahydro-WS-9326A, tetrahydro-WS-9326A] (X2-T[X1]L[dF][aThr]NS; ester 1-C; N-terminus assumed), in [1], the IC50 was determined as 3.1e-06 M. Besides, the “Inhibition (%) of neurokinin A (1 n mol/kg, iv) response” value is reported as 41.0 ± 5.6% in series [2] (2 minutes); 100.0 ± 0.0% in series [2] (17 minutes); 99.2 ± 0.8% in series [2] (32 minutes); 98.4 ± 1.6% in [2] (47 minutes); 100.0 ± 0.0% in [2] (62 minutes). Moreover, the “Inhibition (%) of neurokinin A response” value in [3] (intratrachea 0.003 mg/kg in DMSO, 20 minutes) is reported as 5.4%; in series [3] (intratrachea 0.003 mg/kg in DMSO, 35 minutes) it was 23.5%; in series [3] (intratrachea 0.003 mg/kg in DMSO, 50 minutes) it was 17.2%; in [3] (intratrachea 0.003 mg/kg in DMSO, 65 minutes), 12.6%; in [3] (setting [10]), 50.0%; in series [3] (setting [11]), 50.9%. Also, the “Inhibition (%) of neurokinin A response” value is 51.4% in [3] (setting [12]); 43.0% in series [3] (setting [13]); 77.7% in [3] (setting [14]); 75.7% in series [3] (setting [15]); 74.6% in series [3] (setting [16]); 71.1% in series [3] (setting [17]). Besides, the “Effect of intratrachea administration on neurokinin A induced bronchoconstriction (in words)” value in series [3] was “highly potent”. For the same molecule, the “ED50, acetic acid induced writhing” value in [4] stood at 5.5 mg/kg.
With `CCC/C=C\c1ccccc1/C=C/C(=O)N[C@@H]1C(=O)N(C)/C(=C/c2ccc(O)cc2)C(=O)N[C@@H](CC(C)C)C(=O)N[C@H](Cc2ccccc2)C(=O)N[C@@H]([C@H](C)O)C(=O)N[C@@H](CC(N)=O)C(=O)N[C@@H](CO)C(=O)O[C@@H]1C` [WS-9326A] ({Cinnamoyl(2-(1Z-pentenyl))}-T[X1]L[dF][aThr]NS; ester 1-C; N-terminus assumed), the entries for the “Inhibition % NKA 10^-9 M” value in series [5] (3 μg/ml), in [5] (10 μg/ml) and in [5] (30 μg/ml) were 44%, 79% and 100%, respectively. For the same molecule, the IC50 in series [5] (read-out: IC50 (M), NKA 10^-9 M induced contraction) stood at 3.5e-06 M; in series [1] it was 9.7e-06 M. Besides, the “Inhibition % SP 10^-8 M” value in series [1] (3 μg/ml) is -10%; in [1] (10 μg/ml), 50%; in series [1] (30 μg/ml), 63%. In addition, the “Inhibition (%) of neurokinin A (1 n mol/kg, iv) response” value in series [2] (2 minutes) is reported as -16.5 ± 5.6%; in [2] (17 minutes), 30.2 ± 12.9%; in [2] (32 minutes), 45.8 ± 13.8%; in series [2] (47 minutes) it was 55.4 ± 8.1%; in series [2] (62 minutes) it was 49.9 ± 13.4%. For the same molecule, the “Inhibition (%) of capsaicin (10 n mol/kg, iv) response” value in series [6] (2 minutes) turned out to be 16.6 ± 5.1%; in series [6] (17 minutes) it was 40.6 ± 12.2%; in [6] (32 minutes), 51.2 ± 10.4%; in series [6] (47 minutes), 37.2 ± 19.7%; in series [6] (62 minutes), 47.1 ± 16.7%. Also, the “Inhibition (%) of neurokinin A response” value stood at 32.3% in [3] (setting [10]); 28.4% in series [3] (setting [11]); 35.6% in [3] (setting [12]); 35.5% in series [3] (setting [13]); 50.6% in [3] (setting [14]); 42.4% in series [3] (setting [15]). The “Inhibition (%) of neurokinin A response” value in [3] (setting [16]) amounted to 44.9%; in [3] (setting [17]), 42.0%; in [3] (intratrachea 3 mg/kg in DMSO, 20 minutes), 73.4%; in [3] (intratrachea 3 mg/kg in DMSO, 35 minutes) it was 79.4%; in series [3] (intratrachea 3 mg/kg in DMSO, 50 minutes), 81.7%; in series [3] (intratrachea 3 mg/kg in DMSO, 65 minutes), 77.7%. The “Effect of intratrachea administration on neurokinin A induced bronchoconstriction (in words)” value in series [3] was “highly potent”. Further, the “ED50 mg/kg, inhibition of neurokinin A response” value came to 0.23 mg/kg in [3] (20 minutes), 0.29 mg/kg in series [3] (35 minutes), 0.19 mg/kg in series [3] (50 minutes) and 0.24 mg/kg in series [3] (65 minutes). Moreover, in series [7], the LD50 was 250 to 500 mg/kg. For the same molecule, the Solubility result in [8] (acetone) is “Sparingly Soluble”; in series [8] (chloroform), “Insoluble”; in series [8] (ethanol), “Soluble”; in series [8] (ethyl acetate), “Sparingly Soluble”; in series [8] (methanol) it was “Soluble”; in series [8] (water) it was “Insoluble”.
As for `CCC/C=C\c1ccccc1/C=C/C(=O)N[C@@H]1C(=O)N(C)[C@@H](Cc2ccc(O)cc2)C(=O)N[C@@H](CC(C)C)C(=O)N[C@H](Cc2ccccc2)C(=O)N[C@@H]([C@H](C)O)C(=O)N[C@@H](CC(N)=O)C(=O)N[C@@H](CO)C(=O)O[C@@H]1C` [WS-9326B] ({Cinnamoyl(2-(1Z-pentenyl))}-T[NMeY]L[dF][aThr]NS; ester 1-C), the IC50 in series [9] is 8.8e-05 M. Moreover, the Solubility entry in series [8] (acetone) is on record as “Insoluble”; in series [8] (chloroform), “Insoluble”; in series [8] (ethanol) it was “Sparingly Soluble”; in series [8] (ethyl acetate), “Insoluble”; in series [8] (methanol), “Soluble”; in series [8] (water), “Insoluble”.
